Assay results published in US20230391726A1, “DIHYDROQUINAZOLINONES AND RELATED ANALOGS FOR INHIBITING YAP/TAZ-TEAD” (THE KATHOLIEKE UNIVERSITEIT LEUVEN, priority 2022, published 2023).

Legend:
Assay type in all cases: cell-based
[1] = system: YAP/TAZ-TEAD transcription; experiment: Reporter gene assay for measuring the inhibition of YAP/TAZ-TEAD transcription (TEAD-responsive element luciferase reporter in Hek293T cells); conditions: Homo sapiens, HEK-293T; Hek293T cells transfected with TEAD-responsive element luciferase reporter, 24 hours incubation
Experimental: Hek293T cells are cultured in DMEM supplemented with 10% fetal bovine serum, Sodium pyruvate, Sodium bicarbonate, L-glutamine. The cells are harvested and transiently transfected with TEAD-responsive element luciferase reporter. Transfected cells are plated in 384-wells plate containing pre-diluted compounds. After 24 hours incubation at 37° C./5% CO2, assay plates were cooled down to RT and levelled to an equal volume per well, prior to the addition of 25 uL luciferase substrate SteadyLite (Perkin Elmer)/well. The plate was shaken for 10 min at 600 rpm, centrifuged for 1 min at 500 rpm and measured with an Envision reader (PerkinElmer). The amount of relative light units produced by the TEAD reporter is used to calculated percent of inhibition.
The percent of reporter inhibition was calculated in the presence of a positive control inhibitor (100% inhibition) versus a condition with the presence of the vehicle basal activity of the reporter (0% inhibition). The ability of a test compound to inhibit this activity was determined as:
Percentage inhibition=[1-((RLU determined in the presence of vehicle−RLU determined for sample with test compound present) divided by (RLU determined in the presence of vehicle−RLU determined for sample with positive control inhibitor))]*100
The activities of example compounds tested are depicted in Table 3. The activity ranges A, B and C refer to IC50 values in the reporter gene assay as follows: “A”: IC50<1 μM; “B”: 1 μM≤IC50≤20 μM and “C”: IC50>20 μM; NT=not tested.

NCl-H2052 = experiment: Mesothelioma cell line proliferation assay (ATPlite), NCl-H2052; conditions: Homo sapiens, NCI-H2052, 144 h, NCl-H2052 mesothelioma cells, 6 days incubation
Experimental: (§1) Mesothelioma cell lines, NCl-H226 and NCl-H2052 (all sourced from the ATCC cell culture collection) are plated in 96-well plates (Corning® 96 Well White Polystyrene Microplate clear flat bottom, white polystyrene (TC-Treated)), at 1500 cells/well in full medium (RPMI 1640 ATCC modification with L-glutamine, HEPES, Phenol Red, Sodium Pyruvate, High glucose, Low sodium bicarbonate and 10% fetal bovine serum). Cells are incubated overnight at 37° C. in an incubator with 5% CO2. Then compounds, dissolved in DMSO, are added in dose-response. Cells are incubated with compound dilutions for another 6 days at 37° C. in an incubator with 5% CO2. Cell viability is quantitated using the ATPlite kit (Perkin-Elmer) and the luminescence is read-out using an Envision instrument (Perkin-Elmer). The amount of relative light units produced using the ATPlite kit is used to calculated percent of inhibition.
(§2) The activities of some example compounds are depicted in Table 4. The activity ranges A, B and C refer to EC50 values in the mesothelioma cell line proliferation assay as described as follows: “A”: EC50<1 μM; “B”: 1 μM≤EC50≤10 μM and “C”: EC50>10 μM; NT: not tested.

NCl-H226 = experiment: Mesothelioma cell line proliferation assay (ATPlite), NCl-H226; conditions: Homo sapiens, NCI-H226, 144 h, NCl-H226 mesothelioma cells, 6 days incubation
Experimental: as §1, §2

EC50 [1] [µM]	EC50 (NCl-H2052) [µM]	EC50 (NCl-H226) [µM]	SMILES
> 20	–	–	CNC(=O)CN1CN(c2ccc(C(F)(F)F)cc2)c2ccccc2C1=O [Cpd. No. 6, N-methyl-2-(4-oxo-1-(4-(trifluoromethyl)phenyl)-1,4-dihydroquinazolin-3(2H)-yl)acetamide]
> 20	–	–	NC(=O)CN1CN(c2ccc(C(F)(F)F)cc2)c2ccccc2C1=O [Cpd. No. 5, 2-(4-oxo-1-(4-(trifluoromethyl)phenyl)-1,4-dihydroquinazolin-3(2H)-yl)acetamide]
1 to 20	–	–	C=CC(=O)NC1CN(c2ccccc2)c2ccccc2C1=O (stereo not drawn) [Cpd. No. 7, N-(4-oxo-1-phenyl-1,2,3,4-tetrahydroquinolin-3-yl)acrylamide]

More lines, now with the values behind:

SMILES	EC50 [1] [µM]	EC50 (NCl-H2052) [µM]	EC50 (NCl-H226) [µM]
O=C1NCN(c2ccc(C(F)(F)F)cc2)c2ccccc21 [Cpd. No. 1, 1-(4-(trifluoromethyl)phenyl)-2,3-dihydroquinazolin-4(1H)-one]	1 to 20	> 10	> 10
O=C(O)CN1CN(c2ccc(C(F)(F)F)cc2)c2ccccc2C1=O [Cpd. No. 3, 2-(4-oxo-1-(4-(trifluoromethyl)phenyl)-1,4-dihydroquinazolin-3(2H)-yl)acetic acid]	1 to 20	–	–
O=C1c2ccccc2N(c2ccc(C(F)(F)F)cc2)CN1CCO [Cpd. No. 4, 3-(2-hydroxyethyl)-1-(4-(trifluoromethyl)phenyl)-2,3-dihydroquinazolin-4(1H)-one]	1 to 20	–	–
O=C1c2ccccc2N(c2ccc(C(F)(F)F)cc2)CN1CCCO [Cpd. No. 2, 3-(3-hydroxypropyl)-1-(4-(trifluoromethyl)phenyl)-2,3-dihydroquinazolin-4(1H)-one]	1 to 20	–	–
